Laboratory results as given in PubChem BioAssay AID1963431 (Molecular Pharmacology Branch, DTP, NCI, 2024).

System: Rh18 complex spheroid viability, percent test/control
Test: Anticancer human tumor Rh18 cell line growth inhibition [Asc];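 further: spheroids exposed to compound for 7 days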;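 on viability, T/C: 100% = DMSO vehicle control wells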
Details: for IC50: curve of first compound; for viability, T/C: stronger effect = lower value
Outline: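 Stromal components (HUVEC and hMSC) are co-assembled with the cancer cells into multicellular spheroids. Drugs are then added singly or paired, at concentrations falling by half-log increments from a clinically achievable maximum, capped at 10 microM without known Cmax.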

C#Cc1c(F)ccc2cc(O)cc(-c3ncc4c(N5CC6CCC(C5)N6)nc(OCC56CCCN5CC(F)C6)nc4c3F)c12 (stereo not given) + Cc1c(S(C)(=O)=O)c(-c2cc(F)cc(N3CCN(c4ccc(NS(=O)(=O)c5ccc(NC(CCN6CCC(C(=O)OCCCP(=O)(O)O)CC6)CSc6ccccc6)c(S(=O)(=O)C(F)(F)F)c5)cc4)CC3)c2)c(-c2ccc(Cl)cc2)n1C(C)C
IC50 (second compound 0.1 µM): < 31.6 nM
IC50 (second compound 0.316 µM): < 31.6 nM
IC50 (second compound 1 µM): < 31.6 nM
IC50 (second compound 3.16 µM): < 31.6 nM
IC50 (second compound 10 µM): < 31.6 nM
viability, T/C (second compound 0.1 µM, first compound 0.0316 µM): 14.1%
viability, T/C (second compound 0.1 µM, first compound 0.1 µM): 10.3%
viability, T/C (second compound 0.1 µM, first compound 0.316 µM): 12.1%
viability, T/C (second compound 0.1 µM, first compound 1 µM): 13%
viability, T/C (second compound 0.1 µM, first compound 3.16 µM): 15.7%
viability, T/C (second compound 0.1 µM, first compound 10 µM): 15.8%
viability, T/C (second compound 0.316 µM, first compound 0.0316 µM): 11%
viability, T/C (second compound 0.316 µM, first compound 0.1 µM): 10.6%
viability, T/C (second compound 0.316 µM, first compound 0.316 µM): 10.8%
viability, T/C (second compound 0.316 µM, first compound 1 µM): 8.98%
viability, T/C (second compound 0.316 µM, first compound 3.16 µM): 10.4%
viability, T/C (second compound 0.316 µM, first compound 10 µM): 12.9%
viability, T/C (second compound 1 µM, first compound 0.0316 µM): 8.64%
viability, T/C (second compound 1 µM, first compound 0.1 µM): 7.73%
viability, T/C (second compound 1 µM, first compound 0.316 µM): 8.18%
viability, T/C (second compound 1 µM, first compound 1 µM): 9.23%
viability, T/C (second compound 1 µM, first compound 3.16 µM): 8.77%
viability, T/C (second compound 1 µM, first compound 10 µM): 8.2%
viability, T/C (second compound 3.16 µM, first compound 0.0316 µM): 6.12%
viability, T/C (second compound 3.16 µM, first compound 0.1 µM): 6.59%
viability, T/C (second compound 3.16 µM, first compound 0.316 µM): 5.52%
viability, T/C (second compound 3.16 µM, first compound 1 µM): 4.57%
viability, T/C (second compound 3.16 µM, first compound 3.16 µM): 5.64%
viability, T/C (second compound 3.16 µM, first compound 10 µM): 6.94%
viability, T/C (second compound 10 µM, first compound 0.0316 µM): 5.81%
viability, T/C (second compound 10 µM, first compound 0.1 µM): 5.32%
viability, T/C (second compound 10 µM, first compound 0.316 µM): 2.97%
viability, T/C (second compound 10 µM, first compound 1 µM): 3.66%
viability, T/C (second compound 10 µM, first compound 3.16 µM): 2.62%
viability, T/C (second compound 10 µM, first compound 10 µM): 4.15%

CCN1C(C(=O)NC23CCC(C(=O)O)(CC2)CC3)C(c2cccc(Cl)c2F)C2(C(=O)Nc3cc(Cl)ccc32)C12CCCCC2 (stereo not given) + Cc1c(S(C)(=O)=O)c(-c2cc(F)cc(N3CCN(c4ccc(NS(=O)(=O)c5ccc(NC(CCN6CCC(C(=O)OCCCP(=O)(O)O)CC6)CSc6ccccc6)c(S(=O)(=O)C(F)(F)F)c5)cc4)CC3)c2)c(-c2ccc(Cl)cc2)n1C(C)C
IC50 (second compound 0.1 µM): < 9.49 nM
IC50 (second compound 0.316 µM): < 9.49 nM
IC50 (second compound 1 µM): < 9.49 nM
IC50 (second compound 3.16 µM): < 9.49 nM
IC50 (second compound 10 µM): < 9.49 nM
viability, T/C (second compound 0.1 µM, first compound 0.00949 µM): 19%
viability, T/C (second compound 0.1 µM, first compound 0.03 µM): 21%
viability, T/C (second compound 0.1 µM, first compound 0.0949 µM): 10.3%
viability, T/C (second compound 0.1 µM, first compound 0.3 µM): 6.82%
viability, T/C (second compound 0.1 µM, first compound 0.949 µM): 7.29%
viability, T/C (second compound 0.1 µM, first compound 3 µM): 3.96%
viability, T/C (second compound 0.316 µM, first compound 0.00949 µM): 12%
viability, T/C (second compound 0.316 µM, first compound 0.03 µM): 16.4%
viability, T/C (second compound 0.316 µM, first compound 0.0949 µM): 7.76%
viability, T/C (second compound 0.316 µM, first compound 0.3 µM): 5.97%
viability, T/C (second compound 0.316 µM, first compound 0.949 µM): 4.04%
viability, T/C (second compound 0.316 µM, first compound 3 µM): 0.91%
viability, T/C (second compound 1 µM, first compound 0.00949 µM): 8.76%
viability, T/C (second compound 1 µM, first compound 0.03 µM): 8.85%
viability, T/C (second compound 1 µM, first compound 0.0949 µM): 5.21%
viability, T/C (second compound 1 µM, first compound 0.3 µM): 4.08%
viability, T/C (second compound 1 µM, first compound 0.949 µM): 1.55%
viability, T/C (second compound 1 µM, first compound 3 µM): 0.87%
viability, T/C (second compound 3.16 µM, first compound 0.00949 µM): 6.63%
viability, T/C (second compound 3.16 µM, first compound 0.03 µM): 5.76%
viability, T/C (second compound 3.16 µM, first compound 0.0949 µM): 4.28%
viability, T/C (second compound 3.16 µM, first compound 0.3 µM): 3.45%
viability, T/C (second compound 3.16 µM, first compound 0.949 µM): 0.93%
viability, T/C (second compound 3.16 µM, first compound 3 µM): 0.73%
viability, T/C (second compound 10 µM, first compound 0.00949 µM): 5.47%
viability, T/C (second compound 10 µM, first compound 0.03 µM): 3.7%
viability, T/C (second compound 10 µM, first compound 0.0949 µM): 2.69%
viability, T/C (second compound 10 µM, first compound 0.3 µM): 1.52%
viability, T/C (second compound 10 µM, first compound 0.949 µM): 0.64%
viability, T/C (second compound 10 µM, first compound 3 µM): 0.73%

NC(=O)C(=Cn1cnc(-c2cc(C(F)(F)F)cc(C(F)(F)F)c2)n1)c1cncnc1 + CCN1C(C(=O)NC23CCC(C(=O)O)(CC2)CC3)C(c2cccc(Cl)c2F)C2(C(=O)Nc3cc(Cl)ccc32)C12CCCCC2
IC50 (second compound 0.03 µM): < 0.949 nM
IC50 (second compound 0.0949 µM): < 0.949 nM
IC50 (second compound 0.3 µM): < 0.949 nM
IC50 (second compound 0.949 µM): < 0.949 nM
IC50 (second compound 3 µM): < 0.949 nM
viability, T/C (second compound 0.03 µM, first compound 0.000949 µM): 39.2%
viability, T/C (second compound 0.03 µM, first compound 0.003 µM): 32%
viability, T/C (second compound 0.03 µM, first compound 0.00949 µM): 37.7%
viability, T/C (second compound 0.03 µM, first compound 0.03 µM): 32%
viability, T/C (second compound 0.03 µM, first compound 0.0949 µM): 26.6%
viability, T/C (second compound 0.03 µM, first compound 0.3 µM): 22.1%
viability, T/C (second compound 0.0949 µM, first compound 0.000949 µM): 19.4%
viability, T/C (second compound 0.0949 µM, first compound 0.003 µM): 18.7%
viability, T/C (second compound 0.0949 µM, first compound 0.00949 µM): 16.7%
viability, T/C (second compound 0.0949 µM, first compound 0.03 µM): 12.7%
viability, T/C (second compound 0.0949 µM, first compound 0.0949 µM): 9.47%
viability, T/C (second compound 0.0949 µM, first compound 0.3 µM): 4.98%
viability, T/C (second compound 0.3 µM, first compound 0.000949 µM): 9.47%
viability, T/C (second compound 0.3 µM, first compound 0.003 µM): 9.88%
viability, T/C (second compound 0.3 µM, first compound 0.00949 µM): 9.7%
viability, T/C (second compound 0.3 µM, first compound 0.03 µM): 6.03%
viability, T/C (second compound 0.3 µM, first compound 0.0949 µM): 5%
viability, T/C (second compound 0.3 µM, first compound 0.3 µM): 1.69%
viability, T/C (second compound 0.949 µM, first compound 0.000949 µM): 7.7%
viability, T/C (second compound 0.949 µM, first compound 0.003 µM): 9.36%
viability, T/C (second compound 0.949 µM, first compound 0.00949 µM): 6.31%
viability, T/C (second compound 0.949 µM, first compound 0.03 µM): 4.21%
viability, T/C (second compound 0.949 µM, first compound 0.0949 µM): 3.62%
viability, T/C (second compound 0.949 µM, first compound 0.3 µM): 1.42%
viability, T/C (second compound 3 µM, first compound 0.000949 µM): 6.6%
viability, T/C (second compound 3 µM, first compound 0.003 µM): 6.14%
viability, T/C (second compound 3 µM, first compound 0.00949 µM): 5.36%
viability, T/C (second compound 3 µM, first compound 0.03 µM): 4.12%
viability, T/C (second compound 3 µM, first compound 0.0949 µM): 2.88%
viability, T/C (second compound 3 µM, first compound 0.3 µM): 1.03%
